The target of experiment [1] is T1, recombinant human Meningioma Expressed Antigen 5 (MGEA5), also referred to as O-GcNAcase (OGA) (Homo sapiens, UniProt O60502).
T1 construct: Full length OGA enzyme was purchased at OnGene (cat #TP322411); purchased OnGene (so in the source)
T1 sequence (O60502 1-916): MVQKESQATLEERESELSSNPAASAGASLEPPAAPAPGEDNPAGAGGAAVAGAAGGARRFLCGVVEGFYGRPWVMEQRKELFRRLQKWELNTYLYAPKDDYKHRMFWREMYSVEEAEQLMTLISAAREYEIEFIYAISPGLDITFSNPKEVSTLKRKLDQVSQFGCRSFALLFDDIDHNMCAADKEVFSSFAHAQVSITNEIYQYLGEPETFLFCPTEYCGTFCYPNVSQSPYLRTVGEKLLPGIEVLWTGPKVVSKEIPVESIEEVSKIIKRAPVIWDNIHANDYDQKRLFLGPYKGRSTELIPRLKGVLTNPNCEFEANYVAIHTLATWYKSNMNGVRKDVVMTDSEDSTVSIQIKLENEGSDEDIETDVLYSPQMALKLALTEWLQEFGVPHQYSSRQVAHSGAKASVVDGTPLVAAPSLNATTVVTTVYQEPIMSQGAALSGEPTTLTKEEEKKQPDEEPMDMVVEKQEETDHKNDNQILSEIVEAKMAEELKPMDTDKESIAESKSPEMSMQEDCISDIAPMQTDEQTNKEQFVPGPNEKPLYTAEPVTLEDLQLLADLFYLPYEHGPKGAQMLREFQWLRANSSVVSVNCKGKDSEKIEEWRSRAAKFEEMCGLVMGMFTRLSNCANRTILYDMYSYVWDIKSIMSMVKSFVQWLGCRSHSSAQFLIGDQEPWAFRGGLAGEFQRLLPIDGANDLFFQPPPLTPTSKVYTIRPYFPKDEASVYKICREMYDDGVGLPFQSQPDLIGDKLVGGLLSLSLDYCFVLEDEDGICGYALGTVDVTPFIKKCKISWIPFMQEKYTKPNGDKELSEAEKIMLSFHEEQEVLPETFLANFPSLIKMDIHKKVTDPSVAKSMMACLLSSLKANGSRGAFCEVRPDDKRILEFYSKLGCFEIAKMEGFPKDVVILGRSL
Kind of experiment: OGA biochemical assay (inhibition of FM-GlcNAc hydrolysis, fluorescence). As to conditions: FM-GlcNAc substrate; for Emax: read-out: Enzymatic Emax (%); for IC50: read-out: Enzymatic hOGA, pIC50 (converted). A digest of the protocol: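 Full-length recombinant human OGA (2 nM) pre-incubated 60 min with compound, then FM-GlcNAc (100 uM final) added in 200 mM citrate/phosphate pH 7.2 with 0.005% Tween-20; 6 h at room temperature, stopped with pH 11.0 carbonate. Fluorescein read at ex 485/em 538 nm; IC50 and Hill coefficient from curve fit against no-inhibitor and saturating-standard controls.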

Another experiment concerns the target T2, OGA (Homo sapiens, UniProt O60502).
T2 construct: endogenous in cells; host or cells: HEK293 cells inducible for P301L mutant human Tau (isoform 2N4R)
T2 sequence (O60502 1-916): T1 sequence (O60502 1-916)
Kind of experiment: OGA cellular assay (ICC detection of O-GlcNAcylated proteins in HEK293 cells inducible for P301L mutant human Tau). It counts as cell-based. As to conditions: 6 hours incubation; for Emax: HEK293, HEK293 cells inducible for P301L mutant human Tau; for Emax / Cellular Emax (%): maximum = Thiamet G 200 uM; for EC50 / Cellular hOGA; pEC50 / Cellular Emax (%): HEK293 cells inducible for P301L mutant human Tau; for EC50: read-out: Cellular hOGA, pEC50 (converted). The procedure:
HEK293 cells inducible for P301L mutant human Tau (isoform 2N4R) were established at Janssen. Thiamet-G was used for both plate validation (high control) and as reference compound (reference EC50 assay validation). OGA inhibition is evaluated through the immunocytochemical (ICC) detection of O-GlcNAcylated proteins by the use of a monoclonal antibody (CTD110.6; Cell Signaling, #9875) detecting O-GlcNAcylated residues as previously described (Dorfmueller et al. 2010 Chemistry & biology, 17:1250). Inhibition of OGA will result in an increase of O-GlcNAcylated protein levels resulting in an increased signal in the experiment. Cell nuclei are stained with Hoechst to give a cell culture quality control and a rough estimate of immediate compounds toxicity, if any. ICC pictures are imaged with a Perkin Elmer Opera Phenix plate microscope and quantified with the provided software Perkin Elmer Harmony 4.1.
Cells were propagated in DMEM high Glucose (Sigma, #D5796) following standard procedures. 2 days before the cell assay cells are split, counted and seeded in Poly-D-Lysine (PDL) coated 96-wells (Greiner, #655946) plate at a cell density of 12,000 cells per cm^2 (4,000 cells per well) in 100 μl of Assay Medium (Low Glucose medium is used to reduce basal levels of GlcNAcylation) (Park et al. 2014 The Journal of biological chemistry 289:13519). At the day of compound test medium from assay plates was removed and replenished with 90 μl of fresh Assay Medium. 10 μl of compounds at a 10 fold final concentration were added to the wells. Plates were centrifuged shortly before incubation in the cell incubator for 6 hours. DMSO concentration was set to 0.2%. Medium is discarded by applying vacuum. For staining of cells medium was removed and cells washed once with 100 μl D-PBS (Sigma, #D8537). From next step onwards unless other stated assay volume was always 50 μl and incubation was performed without agitation and at room temperature. Cells were fixed in 50 μl of a 4% paraformaldehyde (PFA, Alpha aesar, #043368) PBS solution for 15 minutes at room temperature. […] Before analysis samples were washed 2 times manually for 5 minutes in ICC base buffer.
Imaging is performed using Perkin Elmer Phenix Opera using a water 20×objective and recording 9 fields per well. Intensity readout at 488 nm is used as a measure of O-GlcNAcylation level of total proteins in wells. To assess potential toxicity of compounds nuclei were counted using the Hoechst staining. IC50-values are calculated using parametric non-linear regression model fitting. As a maximum inhibition Thiamet G at a 200 uM concentration is present on each plate. In addition, a concentration response of Thiamet G is calculated on each plate.

The structures appear in SMILES notation. Bounds are passed on as bounds.

As usually defined, the Emax is the greatest response seen or fitted, relative to the assay's reference. Consider `CCOc1cncc(C(C)N2CCC[C@H](Cc3cc(C)nc(C)c3)C2)c1` (mixture of isomers) [Product 44], for which, in experiment [1], the Emax is 100% and the IC50 was 26.9 nM. At OGA, the Emax is 41% and the EC50 is more than 1000 nM.

Regarding `CC(=O)Nc1cc(C(C)N2CCC[C@H](Cc3cc(C)nc(C(F)(F)F)c3)C2)n[nH]1` (mixture of isomers) [Product 70], in experiment [1], the Emax came to 101% and the IC50 is 52.5 nM. At OGA, the Emax was 57% and the EC50 was 525 nM.

`COc1cc(C[C@H]2CCCN(C(C)c3nc(OC)ccc3F)C2)cc(C(F)(F)F)n1` (mixture of isomers) [Product 79]: in experiment [1], the Emax was 104% and the IC50 was 43.7 nM. Besides, on OGA, the Emax was 8% and the EC50 is more than 1000 nM.

Regarding `COc1cc(NC[C@H]2CCCN(C(C)c3nc(OC)ccc3F)C2)cc(C)n1` (mixture of isomers) [Product 90], in experiment [1], the Emax came to 102% and the IC50 was 12.3 nM. Moreover, on OGA, the maximal effect (Emax) is 79% and the EC50 is 117 nM.

Turning to `COc1ccc(F)c(C(C)N2CC[C@H](Cc3cc(C)nc(C)c3)C2)n1` (mixture of isomers) [Product 100], in experiment [1], the Emax was 97% and the IC50 is 912 nM. On OGA, the maximal effect (Emax) is 10% and the EC50 is more than 1000 nM.

Take `CC(=O)Nc1cc(C(C)N2CC[C@H](Cc3cc(C)nc(C(F)(F)F)c3)C2)n[nH]1` (mixture of isomers) [Product 122]: in experiment [1], the Emax was 92% and the IC50 is 1000 nM. On OGA, the Emax turned out to be 17% and the EC50 is more than 1000 nM.

For `COc1cc(C(C)N2CC[C@H](Cc3cc(C)nc(OC)c3)C2)c(F)cn1` (mixture of isomers) [Product 130], in experiment [1], the Emax was found to be 95% and the IC50 was 871 nM. At OGA, the Emax worked out at 4% and the EC50 is more than 1000 nM.

As for `CC(=O)Nc1ccc(C(C)N2CCC[C@H](Cc3cc(C)nc(C)c3)C2)s1` (mixture of isomers) [Product 134], in experiment [1], the maximal effect (Emax) was determined as 101% and the IC50 is 4.68 nM. At OGA, the maximal effect (Emax) amounted to 59% and the EC50 is 240 nM.

`CC(=O)Nc1nc(C(C)N2CCC[C@H](Cc3cc(C)nc(C)c3)C2)c[nH]1` (mixture of isomers) [Product 136]: in experiment [1], the Emax stood at 102% and the IC50 is 110 nM. On OGA, the Emax came to 12% and the EC50 was more than 1000 nM.

On to `CC(=O)Nc1cc(C(C)N2CCC[C@H](Cc3cc(C)nc(C)c3)C2)n[nH]1` (stereo in doubt) [Product 3], for which, in experiment [1], the Emax was found to be 102% and the IC50 is 2.57 nM. For the same compound, at OGA, the Emax stood at 84% and the EC50 is 47.9 nM.

Regarding `CC(=O)Nc1cc(CN2CCC[C@H](Cc3cc(C)nc(C)c3)C2)n[nH]1` [Product 1], in experiment [1], the Emax was 101% and the IC50 is 21.4 nM. Further, on OGA, the Emax was determined as 56% and the EC50 is 692 nM.

For the compound `CC(=O)Nc1cc([C@H](C)N2CCC[C@H](Cc3cc(C)nc(C)c3)C2)n[nH]1` [Product 5], in experiment [1], the “Enzymatic Emax (%)” value is reported as 104% and the “Enzymatic hOGA; pIC50” value turned out to be 8.91. In addition, on OGA, the “Cellular hOGA; pEC50” value is reported as 7.44 and the “Cellular Emax (%)” value stood at 80%.

Regarding `CC(=O)Nc1cc(CN2CCC[C@H](Cc3cc(C)nc(C)c3)C2)nn1C` [Product 6], in experiment [1], the maximal effect (Emax) came to 100% and the IC50 was 174 nM. Moreover, at OGA, the maximal effect (Emax) stood at 11% and the EC50 is more than 1000 nM.

`CCOc1cc([C@H](C)N2CCC[C@H](Cc3cc(C)nc(C)c3)C2)n[nH]1` [Product 16]: in experiment [1], the “Enzymatic Emax (%)” value worked out at 101% and the “Enzymatic hOGA; pIC50” value stood at 7.45. Also, at OGA, the “Cellular hOGA; pEC50” value was 6.05 and the “Cellular Emax (%)” value was 31%.

In the case of `COCc1cc(C(C)N2CCC[C@H](Cc3cc(C)nc(C)c3)C2)n[nH]1` (some centres unmarked) [Product 19], in experiment [1], the maximum response (Emax) worked out at 101% and the IC50 was 43.7 nM. For the same compound, on OGA, the maximal effect (Emax) worked out at 42% and the EC50 was more than 1000 nM.

As for `Cc1cc(C[C@H]2CCCN(Cc3cc(C4CC4)[nH]n3)C2)cc(C)n1` [Product 20], in experiment [1], the Emax came out at 96% and the IC50 is 851 nM. On OGA, the Emax came to 11% and the EC50 is more than 1000 nM.

For `CCOc1nc(CN2CCC[C@H](Cc3cc(C)nc(C)c3)C2)c[nH]1` [Product 23], in experiment [1], the Emax amounted to 102% and the IC50 is 60.3 nM. Besides, at OGA, the Emax stood at 70% and the EC50 is 427 nM.

As to `CC(=O)Nc1ccc(CN2CCC[C@H](Cc3cc(C)nc(C)c3)C2)s1` [Product 28], in experiment [1], the Emax came to 100% and the IC50 is 19.1 nM. At OGA, the maximum response (Emax) turned out to be 75% and the EC50 was 309 nM.

On to `CC(=O)Nc1cncc(CN2CCC[C@H](Cc3cc(C)nc(C)c3)C2)c1` [Product 34], for which, in experiment [1], the maximal response (Emax) was 91% and the IC50 was 490 nM. On OGA, the Emax is 4% and the EC50 is more than 1000 nM.

With `COc1ccc(F)c([C@H](C)N2CCC[C@H](Cc3cc(C)nc(C)c3)C2)n1` [Product 42], in experiment [1], the “Enzymatic Emax (%)” value amounted to 103% and the “Enzymatic hOGA; pIC50” value amounted to 7.88. In addition, on OGA, the “Cellular hOGA; pEC50” value worked out at 7.03 and the “Cellular Emax (%)” value is reported as 100%.

In the case of `COc1cccc([C@H](C)N2CCC[C@H](Cc3cc(C)nc(C)c3)C2)n1` [Product 47], in experiment [1], the “Enzymatic Emax (%)” value came to 102% and the “Enzymatic hOGA; pIC50” value is 7.28. Also, on OGA, the “Cellular hOGA; pEC50” value was 6.29 and the “Cellular Emax (%)” value is given as 67%.

In the case of `CC(=O)Nc1cnc(CN2CCC[C@H](Cc3cc(C)nc(C)c3)C2)cn1` [Product 63], in experiment [1], the Emax worked out at 93% and the IC50 is 1200 nM. Moreover, on OGA, the Emax was 25% and the EC50 is more than 1000 nM.

On to `COc1cc(C[C@H]2CCCN(C(C)c3cc(NC(C)=O)[nH]n3)C2)cc(C)n1` (some centres unmarked) [Product 66], for which, in experiment [1], the Emax came to 102% and the IC50 was 18.6 nM. For the same compound, on OGA, the Emax was 83% and the EC50 was 200 nM.

Source of the values: patent US20210300900A1, “OGA INHIBITOR COMPOUNDS” (Janssen Pharmaceutica NV, priority 2018, published 2021).
